Experiments:
Flag-BCL-10 = target: T1, Flag-BCL-10 (Homo sapiens, UniProt O95999); experiment: competition of free emodin against pull-down by emodin-Sepharose, anti-Flag western blot; format: biochemical; settings: 100 µM free emodin; HEK293T lysate, pH 7.4, 4 °C
T1 construct: gene BCL10; Flag-tagged, overexpressed in HEK293T, cell lysate; plasmid section instead says N-terminal 'Streptococcus' tag in pCDH-EF1-MCS-T2A-Puro
T1 sequence (O95999 1-233): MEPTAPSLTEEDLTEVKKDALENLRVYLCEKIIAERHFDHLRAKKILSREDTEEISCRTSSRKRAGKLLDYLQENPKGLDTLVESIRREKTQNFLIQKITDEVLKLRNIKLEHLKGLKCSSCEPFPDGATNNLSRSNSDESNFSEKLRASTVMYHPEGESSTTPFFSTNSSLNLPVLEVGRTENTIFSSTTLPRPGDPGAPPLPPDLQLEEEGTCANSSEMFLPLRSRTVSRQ

[1] = target: T2, rhBCL-10 (recombinant human BCL-10) (Homo sapiens, UniProt O95999); experiment: thermal shift, soluble protein by western blot; format: binding; settings: 100 µM emodin, 37-67 °C; text says recombinant BCL-10, methods describe lysate of PMA-treated HL-60 cells
T2 construct: gene BCL10; recombinant human protein, amine-coupled on sensor chip for SPR
T2 sequence (O95999 1-233): T1 sequence (O95999 1-233)

[2] = target: T2, rhBCL-10 (recombinant human BCL-10); experiment: SPR (Biacore T200), global […] Langmuir kinetic fit; format: binding

Kd [2]: 1940 nM
Compound: Cc1cc(O)c2c(c1)C(=O)c1cc(O)cc(O)c1C2=O [Emodin]
competition of free emodin against pull-down by emodin-Sepharose, anti-Flag west (Flag-BCL-10): free Emodin competitively inhibited the binding of Flag-BCL-10 to Emodin-Sepharose | thermal stabilisation [1]: Emodin binding significantly enhances BCL-10′s thermal resistance

From article PMC12591137, “Emodin Alleviates Sepsis‐Induced Multiorgan Damage by Inhibiting NETosis through Targeting Neutrophils BCL‐10” (Advanced Science, 2025)
